{"source": "patent US12655116B2", "about": "“Substituted isophthalic acid diamides” (Bayer Aktiengesellschaft, priority 2020, dated 2026)", "key": {"AMARE [1]": {"test_system": "AMARE", "assay": "Pre-emergence herbicidal action against AMARE", "format": "in vivo, Amaranthus retroflexus", "settings": "Amaranthus retroflexus, 504 h, scored visually after 3 weeks vs untreated controls, 100% = plants have died, 0% = like control plants", "summary_of_the_method": "(§1)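 Visual rating at 3 weeks vs untreated pots; 0–100% scale, 100% = plants died. Treatment: aqueous WP/EC spray onto covering soil, 600–800 l/ha, 0.2% wetter, seeds in sandy loam.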"}, "VIOTR [2]": {"test_system": "VIOTR", "assay": "Post-emergence herbicidal action against VIOTR", "format": "in vivo, Viola tricolor", "settings": "Viola tricolor, 504 h, 20 g/ha", "summary_of_the_method": "(§2)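 Greenhouse pot plants in sandy loam were sprayed at the one-leaf stage, 2 to 3 weeks after sowing, with WP or EC formulations as aqueous suspension or emulsion (600 to 800 l/ha water, 0.2% wetting agent). About 3 weeks later, damage was scored visually against untreated controls as % action (100% = dead, 0% = like control).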"}, "POLCO": {"test_system": "POLCO", "assay": "Pre-emergence herbicidal action against POLCO", "format": "in vivo, Polygonum convolvulus", "settings": "Fallopia convolvulus, 504 h, dosage 80 g/ha", "summary_of_the_method": "as §1"}, "VERPE [3]": {"test_system": "VERPE", "assay": "Post-emergence herbicidal action against VERPE", "format": "in vivo, Veronica persica", "settings": "Veronica persica, 504 h, 20 g/ha", "summary_of_the_method": "as §2"}, "LOLRI": {"test_system": "LOLRI", "assay": "Pre-emergence herbicidal action against LOLRI", "format": "in vivo, Lolium rigidum", "settings": "Lolium rigidum, 504 h, 80 g/ha", "summary_of_the_method": "as §1"}, "ABUTH [4]": {"test_system": "ABUTH", "assay": "Post-emergence herbicidal action against ABUTH", "format": "in vivo, Abutilon theophrasti", "settings": "Abutilon theophrasti, 504 h, dosage 20 g/ha, visual assessment about 3 weeks after treatment vs untreated controls", "summary_of_the_method": "as §2"}, "ALOMY [5]": {"test_system": "ALOMY", "assay": "Post-emergence herbicidal action against ALOMY", "format": "in vivo, Alopecurus myosuroides", "settings": "Alopecurus myosuroides, 504 h, dosage 20 g/ha, visual assessment about 3 weeks after treatment vs untreated controls", "summary_of_the_method": "as §2"}, "MATIN [6]": {"test_system": "MATIN", "assay": "Post-emergence herbicidal action against MATIN", "format": "in vivo, Matricaria inodora", "settings": "Tripleurospermum inodorum, 504 h", "summary_of_the_method": "as §2"}, "VIOTR [7]": {"test_system": "VIOTR", "assay": "Pre-emergence herbicidal action against VIOTR", "format": "in vivo, Viola tricolor", "settings": "Viola tricolor, 504 h", "summary_of_the_method": "as §1"}, "VERPE [8]": {"test_system": "VERPE", "assay": "Pre-emergence herbicidal action against VERPE", "format": "in vivo, Veronica persica", "settings": "Veronica persica, 504 h, dosage 80 g/ha", "summary_of_the_method": "as §1"}, "SETVI [9]": {"test_system": "SETVI", "assay": "Pre-emergence herbicidal action against SETVI", "format": "in vivo, Setaria viridis", "settings": "Setaria viridis, 504 h, dosage 80 g/ha", "summary_of_the_method": "as §1"}, "ECHCG [10]": {"test_system": "ECHCG", "assay": "Post-emergence herbicidal action against ECHCG", "format": "in vivo, Echinochloa crus-galli", "settings": "Echinochloa crus-galli, 504 h", "summary_of_the_method": "as §2"}, "MATIN [11]": {"test_system": "MATIN", "assay": "Pre-emergence herbicidal action against MATIN", "format": "in vivo, Matricaria inodora", "settings": "Tripleurospermum inodorum, 504 h", "summary_of_the_method": "as §1"}, "DIGSA [12]": {"test_system": "DIGSA", "assay": "Pre-emergence herbicidal action against DIGSA", "format": "in vivo, Digitaria sanguinalis", "settings": "Digitaria sanguinalis, 504 h", "summary_of_the_method": "as §1"}, "ABUTH [13]": {"test_system": "ABUTH", "assay": "Pre-emergence herbicidal action against ABUTH", "format": "in vivo, Abutilon theophrasti", "settings": "Abutilon theophrasti, 504 h", "summary_of_the_method": "as §1"}, "AMARE [14]": {"test_system": "AMARE", "assay": "Post-emergence herbicidal action against AMARE", "format": "in vivo, Amaranthus retroflexus", "settings": "Amaranthus retroflexus, 504 h, 20 g/ha, visual assessment about 3 weeks after treatment, 100% = plants have died, 0% = like control plants", "summary_of_the_method": "as §2"}, "SETVI [15]": {"test_system": "SETVI", "assay": "Post-emergence herbicidal action against SETVI", "format": "in vivo, Setaria viridis", "settings": "Setaria viridis, 504 h", "summary_of_the_method": "as §2"}, "AVEFA": {"test_system": "AVEFA", "assay": "Pre-emergence herbicidal action against AVEFA", "format": "in vivo, Avena fatua", "settings": "Avena fatua, 504 h; 80 g/ha, pre-emergence", "summary_of_the_method": "as §1"}, "PHBPU [16]": {"test_system": "PHBPU", "assay": "Post-emergence herbicidal action against PHBPU", "format": "in vivo, Pharbitis purpurea", "settings": "Ipomoea purpurea, 504 h, dosage 20 g/ha", "summary_of_the_method": "as §2"}, "DIGSA [17]": {"test_system": "DIGSA", "assay": "Post-emergence herbicidal action against DIGSA", "format": "in vivo, Digitaria sanguinalis", "settings": "Digitaria sanguinalis, 504 h, 20 g/ha", "summary_of_the_method": "as §2"}, "PHBPU [18]": {"test_system": "PHBPU", "assay": "Pre-emergence herbicidal action against PHBPU", "format": "in vivo, Pharbitis purpurea", "settings": "Ipomoea purpurea, 504 h, dosage 80 g/ha", "summary_of_the_method": "as §1"}, "ECHCG [19]": {"test_system": "ECHCG", "assay": "Pre-emergence herbicidal action against ECHCG", "format": "in vivo, Echinochloa crus-galli", "settings": "Echinochloa crus-galli, 504 h, 80 g/ha", "summary_of_the_method": "as §1"}, "ALOMY [20]": {"test_system": "ALOMY", "assay": "Pre-emergence herbicidal action against ALOMY", "format": "in vivo, Alopecurus myosuroides", "settings": "Alopecurus myosuroides, 504 h; 80 g/ha, pre-emergence, scored visually after 3 weeks vs untreated controls (100% = plants have died, 0% = like control plants)", "summary_of_the_method": "as §1"}}, "data": [{"smiles": "Cc1c(C(=O)Nc2nnnn2C)ccc(C(F)(F)F)c1C(=O)NC(C)C", "note": "[Example 1-33]", "values": [{"measurement": "pest or weed control at 20 g/ha", "setting": "AMARE [1]; 20 g/ha", "value": 100, "unit": "%"}, {"measurement": "pest or weed control at 80 g/ha", "setting": "AMARE [1]; 80 g/ha", "value": 100, "unit": "%"}, {"measurement": "pest or weed control at 20 g/ha", "setting": "VIOTR [2]", "value": 80, "unit": "%"}, {"measurement": "pest or weed control at 80 g/ha", "setting": "POLCO", "value": 90, "unit": "%"}, {"measurement": "pest or weed control at 20 g/ha", "setting": "VERPE [3]", "value": 80, "unit": "%"}, {"measurement": "pest or weed control at 80 g/ha", "setting": "LOLRI", "value": 80, "unit": "%"}, {"measurement": "pest or weed control at 20 g/ha", "setting": "ABUTH [4]", "value": 90, "unit": "%"}, {"measurement": "pest or weed control at 20 g/ha", "setting": "ALOMY [5]", "value": 90, "unit": "%"}, {"measurement": "pest or weed control at 5 g/ha", "setting": "MATIN [6]; dosage 5 g/ha", "value": 80, "unit": "%"}, {"measurement": "pest or weed control at 20 g/ha", "setting": "MATIN [6]; dosage 20 g/ha", "value": 80, "unit": "%"}, {"measurement": "pest or weed control at 20 g/ha", "setting": "VIOTR [7]; dosage 20 g/ha", "value": 100, "unit": "%"}, {"measurement": "pest or weed control at 80 g/ha", "setting": "VIOTR [7]; dosage 80 g/ha", "value": 100, "unit": "%"}, {"measurement": "pest or weed control at 80 g/ha", "setting": "VERPE [8]", "value": 100, "unit": "%"}, {"measurement": "pest or weed control at 80 g/ha", "setting": "SETVI [9]", "value": 100, "unit": "%"}, {"measurement": "pest or weed control at 5 g/ha", "setting": "ECHCG [10]; dosage 5 g/ha", "value": 80, "unit": "%"}, {"measurement": "pest or weed control at 20 g/ha", "setting": "ECHCG [10]; dosage 20 g/ha", "value": 90, "unit": "%"}, {"measurement": "pest or weed control at 20 g/ha", "setting": "MATIN [11]; dosage 20 g/ha", "value": 100, "unit": "%"}, {"measurement": "pest or weed control at 80 g/ha", "setting": "MATIN [11]; dosage 80 g/ha", "value": 100, "unit": "%"}, {"measurement": "pest or weed control at 20 g/ha", "setting": "DIGSA [12]; dosage 20 g/ha", "value": 100, "unit": "%"}, {"measurement": "pest or weed control at 80 g/ha", "setting": "DIGSA [12]; dosage 80 g/ha", "value": 100, "unit": "%"}, {"measurement": "pest or weed control at 80 g/ha", "setting": "ABUTH [13]; 80 g/ha, scored visually after 3 weeks vs untreated controls (100% = plants have died, 0% = like control plants)", "value": 100, "unit": "%"}, {"measurement": "pest or weed control at 20 g/ha", "setting": "ABUTH [13]; dosage 20 g/ha, scored visually after 3 weeks vs untreated controls, 100% = plants have died, 0% = like control plants, read-out: Pre-emergence action against ABUTH (herbicidal activity in percent)", "value": 90, "unit": "%"}, {"measurement": "pest or weed control at 20 g/ha", "setting": "AMARE [14]", "value": 100, "unit": "%"}, {"measurement": "pest or weed control at 5 g/ha", "setting": "SETVI [15]; dosage 5 g/ha", "value": 80, "unit": "%"}, {"measurement": "pest or weed control at 20 g/ha", "setting": "SETVI [15]; dosage 20 g/ha", "value": 90, "unit": "%"}, {"measurement": "pest or weed control at 80 g/ha", "setting": "AVEFA", "value": 100, "unit": "%"}, {"measurement": "pest or weed control at 20 g/ha", "setting": "PHBPU [16]", "value": 80, "unit": "%"}, {"measurement": "pest or weed control at 20 g/ha", "setting": "DIGSA [17]", "value": 90, "unit": "%"}, {"measurement": "pest or weed control at 80 g/ha", "setting": "PHBPU [18]", "value": 100, "unit": "%"}, {"measurement": "pest or weed control at 80 g/ha", "setting": "ECHCG [19]", "value": 100, "unit": "%"}, {"measurement": "pest or weed control at 80 g/ha", "setting": "ALOMY [20]", "value": 100, "unit": "%"}]}]}
